Reference: ChEMBL document CHEMBL3400127, “Synthesis of 6-[(11)C]methyl-m-tyrosine ([(11)C]6MemTyr) for dopamine synthesis imaging in living brain using PET” (Bioorg Med Chem, 2015)

What was measured:
Details in all cases: in vivo; call rule not given here
[1] = Drug uptake in cynomolgus monkey cerebellum after 5 mins by PET imaging analysis; type: ADME, Macaca fascicularis
[2] = Drug uptake in cynomolgus monkey cerebellum after 60 to 90 mins by PET imaging analysis; type: ADME, tissue-based, Macaca fascicularis
[3] = Half life in cynomolgus monkey cerebellum by PET imaging analysis; type: ADME, tissue-based, Macaca fascicularis
[4] = Drug uptake in cynomolgus monkey striatum after 40 to 60 mins by PET imaging analysis; type: ADME, tissue-based, Macaca fascicularis
[5] = Drug uptake in cynomolgus monkey striatum after 10 mins by PET imaging analysis; type: ADME, tissue-based, Macaca fascicularis
[6] = Drug uptake in cynomolgus monkey striatum after 60 to 90 mins by PET imaging analysis; type: ADME, tissue-based, Macaca fascicularis
[7] = Drug uptake in cynomolgus monkey cerebellum after 40 to 60 mins by PET imaging analysis; type: ADME, tissue-based, Macaca fascicularis
[8] = Drug uptake in cynomolgus monkey cortex after 60 to 90 mins by PET imaging analysis; type: ADME, tissue-based, Macaca fascicularis
Brain = assay: Drug uptake in cynomolgus monkey brain assessed as dopamine synthesis after 60 to 90 mins by PET imaging analysis in presence of carbidopa; type: ADME, tissue-based, Macaca fascicularis

Drug uptake [1] | Drug uptake [2] | t1/2 [3] [min] | Drug uptake [4] | Drug uptake [5] | Drug uptake [6] | Drug uptake [7] | Drug uptake [8] | Drug uptake (Brain) | SMILES
Active | Active | 30 | Active | Active | Active | Active | Active | Active | [11CH3]c1ccc(O)cc1C[C@H](N)C(=O)O
Active | Active | 50 | Active | Active | Active | Active | Active | Active | N[C@@H](Cc1cc(O)c(O)cc1[18F])C(=O)O [FLUORODOPA F 18]
